# Test results: ChEMBL document CHEMBL4257513 (Medchemcomm, 2018)
# Calls of active or inactive are those of the source. The calls are words filed in the database; no cut-off is given here.
# What was measured:
# Tyrosinase [1] = molecular target: T1, Tyrosinase (Agaricus bisporus, UniProt O42713)
# T1 sequence (O42713 whole entry): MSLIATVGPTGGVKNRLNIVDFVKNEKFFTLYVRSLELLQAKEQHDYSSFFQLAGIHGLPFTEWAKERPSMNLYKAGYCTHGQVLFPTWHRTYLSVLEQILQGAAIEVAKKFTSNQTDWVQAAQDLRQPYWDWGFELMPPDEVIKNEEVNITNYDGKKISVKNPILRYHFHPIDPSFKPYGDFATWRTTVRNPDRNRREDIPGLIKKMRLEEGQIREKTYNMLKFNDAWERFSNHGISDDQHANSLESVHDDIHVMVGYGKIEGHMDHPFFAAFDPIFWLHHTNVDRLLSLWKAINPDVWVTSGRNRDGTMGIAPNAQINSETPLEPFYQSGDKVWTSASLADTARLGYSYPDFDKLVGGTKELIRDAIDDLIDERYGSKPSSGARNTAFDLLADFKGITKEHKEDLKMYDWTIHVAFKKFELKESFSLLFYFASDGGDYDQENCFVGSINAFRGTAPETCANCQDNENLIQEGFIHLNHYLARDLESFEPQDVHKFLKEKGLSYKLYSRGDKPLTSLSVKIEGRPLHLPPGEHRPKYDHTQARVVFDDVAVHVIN
# Description: Inhibition of mushroom tyrosinase using L-dopa as substrate preincubated for 10 mins followed by substrate addition and measured for 1 min by spectrophotometric method
# [2] = molecular target: T2, Tyrosinase (Agaricus bisporus) (UniProt O42713); test: Inhibition of mushroom tyrosinase at 100 uM using L-dopa as substrate preincubated for 10 mins followed by substrate addition and measured for 1 min by spectrophotometric method relative to control
# T2 sequence (whole entry): T1 sequence (O42713 whole entry)
# Tyrosinase [3] = molecular target: T1, Tyrosinase; test: Noncompetitive inhibition of mushroom tyrosinase assessed as inhibitory constant for enzyme-substrate complex using varying levels of L-dopa as substrate preincubated for 10 mins followed by substrate addition and measured for 1 min by Lineweaver-burk plot analysis
# [4] = molecular target: T2, Tyrosinase (Agaricus bisporus); test: Reversible inhibition of mushroom tyrosinase up to 5 uM using L-dopa as substrate preincubated for 10 mins followed by substrate addition and measured for 1 min by spectrophotometric method
# [5] = molecular target: T2, Tyrosinase (Agaricus bisporus); test: Potency index, ratio of kojic acid IC50 to test compound IC50 for mushroom tyrosinase
# Tyrosinase [6] = molecular target: T1, Tyrosinase; test: Noncompetitive inhibition of mushroom tyrosinase using varying levels of L-dopa as substrate preincubated for 10 mins followed by substrate addition and measured for 1 min by Lineweaver-burk plot analysis
# Tyrosinase [7] = molecular target: T1, Tyrosinase; test: Mixed-type inhibition of mushroom tyrosinase using varying levels of L-dopa as substrate preincubated for 10 mins followed by substrate addition and measured for 1 min by Lineweaver-burk plot analysis
# [8] = molecular target: T2, Tyrosinase (Agaricus bisporus); test: Reversible inhibition of mushroom tyrosinase at 5 to 20 uM using L-dopa as substrate preincubated for 10 mins followed by substrate addition and measured for 1 min by spectrophotometric method
# Tyrosinase [9] = molecular target: T1, Tyrosinase; test: Mixed-type inhibition of mushroom tyrosinase assessed as inhibitory constant for enzyme-substrate complex using varying levels of L-dopa as substrate preincubated for 10 mins followed by substrate addition and measured for 1 min by Lineweaver-burk plot analysis
# [10] = molecular target: T2, Tyrosinase (Agaricus bisporus); test: Reversible inhibition of mushroom tyrosinase at 2 to 20 uM using L-dopa as substrate preincubated for 10 mins followed by substrate addition and measured for 1 min by spectrophotometric method
Structure (SMILES),IC50 (Tyrosinase [1]) [µM],inhibition [2] [%],also measured
COc1ccc(C(C)=O)c(OC(=O)/C=C/c2ccccc2)c1,> 100,< 40,
COc1ccc(C(C)=O)c(OC(=O)/C=C/c2ccc(C)cc2)c1,39,> 40,
COc1ccc(C(C)=O)c(OC(=O)/C=C/c2ccc(O)cc2)c1,2,> 40,Ki (Tyrosinase [3]): 3.8 µM; inhibition [4]: Active; Ratio IC50 [5]: 16; Ki (Tyrosinase [6]): 3.8 µM
COc1ccc(C(C)=O)c(OC(=O)/C=C/c2ccc(O)c(OC)c2)c1,> 100,< 40,
COc1ccc(C(C)=O)c(O)c1 [PAEONOL],121,,
O=C(O)/C=C/c1ccc(O)cc1 [COUMARIC ACID],4710,,
Cc1ccc(C(C)C)c(OC(=O)/C=C/c2ccc(Cl)cc2)c1,> 100,< 40,
Cc1ccc(C(C)C)c(OC(=O)/C=C/c2ccc(O)cc2)c1,10.6,> 40,Ki (Tyrosinase [7]): 8 µM; inhibition [8]: Active; Ki (Tyrosinase [9]): 72.2 µM; Ratio IC50 [5]: 3
COc1cc(/C=C/C(=O)Oc2cc(C)ccc2C(C)C)ccc1O,> 100,< 40,
Cc1ccc(C(C)C)c(OC(=O)/C=C/c2ccc(F)cc2)c1,> 100,< 40,
Cc1ccc(C(C)C)c(OC(=O)/C=C/c2ccccc2)c1,> 100,< 40,
COc1ccc(/C=C/C(=O)Oc2cc(C)ccc2C(C)C)cc1,> 100,< 40,
Cc1ccc(/C=C/C(=O)Oc2cc(C)ccc2C(C)C)cc1,> 100,< 40,
COc1ccc(C(C)=O)c(OC(=O)/C=C/c2ccc(Cl)cc2)c1,164,> 40,
COc1ccc(C(C)=O)c(OC(=O)/C=C/c2ccc(F)cc2)c1,8.3,> 40,Ki (Tyrosinase [7]): 10 µM; inhibition [10]: Active; Ki (Tyrosinase [9]): 35.6 µM
COc1ccc(/C=C/C(=O)Oc2cc(OC)ccc2C(C)=O)cc1,77.4,> 40,
